Tested on: GST-Braf kinase domain and biotinylated E3 substrate adapter (VHL/EloB/EloC complex or CRBN318-425)
Assay: Dimerization assay (AlphaScreen/AlphaLisa), RAF/E3 dimerization
Assay type: binding
Settings: Table 17; relative value; compounds 4 fold serial dilutions from 20 μM

Structure (SMILES) | RAF/E3 Dimerization
O=C1CCC(N2Cc3c(CCCOCCOCCNC(=O)c4cc(Oc5ccc(NC(=O)Nc6ccc(Cl)c(C(F)(F)F)c6)cc5)ccn4)cccc3C2=O)C(=O)N1 (stereo not drawn) [Compound 2.033, 4-(4-(3-(4-chloro-3-(trifluoromethyl)phenyl)ureido)phenoxy)-N-(2-(2-(3-(2-(2,6-dioxopiperidin-3-yl)-1-oxoisoindolin-4-yl)propoxy)ethoxy)ethyl)picolinamide] | ++ (25% > RAF/E3 Dimerization ≥ 5%)
O=C1CCC(N2Cc3c(CCCCCCOCCOCCNC(=O)c4cc(Oc5ccc(NC(=O)Nc6ccc(Cl)c(C(F)(F)F)c6)cc5)ccn4)cccc3C2=O)C(=O)N1 (stereo not drawn) [Compound 2.034, 4-(4-(3-(4-chloro-3-(trifluoromethyl)phenyl)ureido)phenoxy)-N-(2-(2-((6-(2-(2,6-dioxopiperidin-3-yl)-1-oxoisoindolin-4-yl)hexyl)oxy)ethoxy)ethyl)picolinamide] | ++ (25% > RAF/E3 Dimerization ≥ 5%)
CCCCCCNC(=O)Nc1cc(-c2cc3cnc(NCCCCc4cn(CCCCCC(=O)Nc5cccc6c5C(=O)N(C5CCC(=O)NC5=O)C6=O)nn4)nc3nc2C)c(C)cc1F (stereo not drawn) [Compound 2.036, N-(2-(2,6-dioxopiperidin-3-yl)-1,3-dioxoisoindolin-4-yl)-6-(4-(4-((6-(4-fluoro-5-(3-hexylureido)-2-methylphenyl)-7-methylpyrido[2,3-d]pyrimidin-2-yl)amino)butyl)-1H-1,2,3-triazol-1-yl)hexanamide] | ++ (25% > RAF/E3 Dimerization ≥ 5%)
CCCCCCNC(=O)Nc1cc(-c2cc3cnc(NCCCCc4cn(CCCCCC(=O)N[C@@H](C(=O)N5C[C@H](O)C[C@H]5C(=O)N[C@@H](C)c5ccc(-c6scnc6C)cc5)C(C)(C)C)nn4)nc3nc2C)c(C)cc1F [Compound 2.037, (2S,4R)-1-((R)-2-(6-(4-(4-((6-(4-fluoro-5-(3-hexylureido)-2-methylphenyl)-7-methylpyrido[2,3-d]pyrimidin-2-yl)amino)butyl)-1H-1,2,3-triazol-1-yl)hexanamido)-3,3-dimethylbutanoyl)-4-hydroxy-N—((S)-1-(4-(4-methylthiazol-5-yl)phenyl)ethyl)pyrrolidine-2-carboxamide] | ++++ (75% > RAF/E3 Dimerization ≥ 50%)
CCCCCCNC(=O)Nc1cc(-c2cc3cnc(NCCCCc4cn(CCCCC(=O)N[C@@H](C(=O)N5C[C@H](O)C[C@H]5C(=O)N[C@@H](C)c5ccc(-c6scnc6C)cc5)C(C)(C)C)nn4)nc3nc2C)c(C)cc1F [Compound 2.038, (2S,4R)-1-((R)-2-(5-(4-(4-((6-(4-fluoro-5-(3-hexylureido)-2-methylphenyl)-7-methylpyrido[2,3-d]pyrimidin-2-yl)amino)butyl)-1H-1,2,3-triazol-1-yl)pentanamido)-3,3-dimethylbutanoyl)-4-hydroxy-N—((S)-1-(4-(4-methylthiazol-5-yl)phenyl)ethyl)pyrrolidine-2-carboxamide] | +++ (50% > RAF/E3 Dimerization ≥ 25)
CCCCCCNC(=O)Nc1cc(-c2cc3cnc(NCCOCCOCc4cn(CCCCCC(=O)N[C@@H](C(=O)N5C[C@H](O)C[C@H]5C(=O)N[C@@H](C)c5ccc(-c6scnc6C)cc5)C(C)(C)C)nn4)nc3nc2C)c(C)cc1F [Compound 2.039, (2S,4R)-1-((R)-2-(6-(4-((2-(2-((6-(4-fluoro-5-(3-hexylureido)-2-methylphenyl)-7-methylpyrido[2,3-d]pyrimidin-2-yl)amino)ethoxy)ethoxy)methyl)-1H-1,2,3-triazol-1-yl)hexanamido)-3,3-dimethylbutanoyl)-4-hydroxy-N—((S)-1-(4-(4-methylthiazol-5-yl)phenyl)ethyl)pyrrolidine-2-carboxamide] | +++++ (RAF/E3 Dimerization ≥75%)
CNc1ncc2cc(-c3cc(NC(=O)NCCOCCOCCOCC(=O)N[C@@H](C(=O)N4C[C@H](O)C[C@H]4C(=O)N[C@@H](C)c4ccc(-c5scnc5C)cc4)C(C)(C)C)c(F)cc3C)c(C)nc2n1 [Compound 2.041, (2S,4R)-1-((R)-15-(tert-butyl)-1-((2-fluoro-4-methyl-5-(7-methyl-2-(methylamino)pyrido[2,3-d]pyrimidin-6-yl)phenyl)amino)-1,13-dioxo-5,8,11-trioxa-2,14-diazahexadecan-16-oyl)-4-hydroxy-N—((S)-1-(4-(4-methylthiazol-5-yl)phenyl)ethyl)pyrrolidine-2-carboxamide] | + (5% > RAF/E3 Dimerization)

Now from value to compound:

RAF/E3 Dimerization | Structure (SMILES)
+ (5% > RAF/E3 Dimerization) | CNc1ncc2cc(-c3cc(NC(=O)NCCOCCOCCOCCOCCOCC(=O)N[C@@H](C(=O)N4C[C@H](O)C[C@H]4C(=O)N[C@@H](C)c4ccc(-c5scnc5C)cc4)C(C)(C)C)c(F)cc3C)c(C)nc2n1 [Compound 2.040, (2S,4R)-1-((R)-21-(tert-butyl)-1-((2-fluoro-4-methyl-5-(7-methyl-2-(methylamino)pyrido[2,3-d]pyrimidin-6-yl)phenyl)amino)-1,19-dioxo-5,8,11,14,17-pentaoxa-2,20-diazadocosan-22-oyl)-4-hydroxy-N—((S)-1-(4-(4-methylthiazol-5-yl)phenyl)ethyl)pyrrolidine-2-carboxamide]
+ (5% > RAF/E3 Dimerization) | CNc1ncc2cc(-c3cc(NC(=O)NCCOCCOCC(=O)N[C@@H](C(=O)N4C[C@H](O)C[C@H]4C(=O)N[C@@H](C)c4ccc(-c5scnc5C)cc4)C(C)(C)C)c(F)cc3C)c(C)nc2n1 [Compound 2.042, (2S,4R)-1-((R)-12-(tert-butyl)-1-((2-fluoro-4-methyl-5-(7-methyl-2-(methylamino)pyrido[2,3-d]pyrimidin-6-yl)phenyl)amino)-1,10-dioxo-5,8-dioxa-2,11-diazatridecan-13-oyl)-4-hydroxy-N—((S)-1-(4-(4-methylthiazol-5-yl)phenyl)ethyl)pyrrolidine-2-carboxamide]
++ (25% > RAF/E3 Dimerization ≥ 5%) | CNc1ncc2cc(-c3cc(NC(=O)NCCCCCCOCCOCCOCCOCC(=O)N[C@@H](C(=O)N4C[C@H](O)C[C@H]4C(=O)N[C@@H](C)c4ccc(-c5scnc5C)cc4)C(C)(C)C)c(F)cc3C)c(C)nc2n1 [Compound 2.043, (2S,4R)-1-((R)-22-(tert-butyl)-1-((2-fluoro-4-methyl-5-(7-methyl-2-(methylamino)pyrido[2,3-d]pyrimidin-6-yl)phenyl)amino)-1,20-dioxo-9,12,15,18-tetraoxa-2,21-diazatricosan-23-oyl)-4-hydroxy-N—((S)-1-(4-(4-methylthiazol-5-yl)phenyl)ethyl)pyrrolidine-2-carboxamide]
+ (5% > RAF/E3 Dimerization) | CC(NC(=O)c1ncnc(NCc2cn(CCCCCC(=O)Nc3cccc4c3C(=O)N(C3CCC(=O)NC3=O)C4=O)nn2)c1Cl)c1ncc(C(=O)Nc2cc(C(F)(F)F)c(Cl)cn2)s1 (stereo not drawn) [Compound 2.044, N-(5-chloro-4-(trifluoromethyl)pyridin-2-yl)-2-(1-(5-chloro-6-(((1-(6-((2-(2,6-dioxopiperidin-3-yl)-1,3-dioxoisoindolin-4-yl)amino)-6-oxohexyl)-H-1,2,3-triazol-4-yl)methyl)amino)pyrimidine-4-carboxamido)ethyl)thiazole-5-carboxamide]
+++++ (RAF/E3 Dimerization ≥75%) | Cc1ncsc1-c1ccc([C@H](C)NC(=O)[C@@H]2C[C@@H](O)CN2C(=O)[C@H](NC(=O)COCCOCCOCCOCCCCCCn2cc(-c3ccnc(NCCC#N)n3)c(-c3cnc4[nH]ccc4c3)n2)C(C)(C)C)cc1 [Compound 2.045, (2S,4R)-1-((R)-2-(tert-butyl)-21-(4-(2-((2-cyanoethyl)amino)pyrimidin-4-yl)-3-(1H-pyrrolo[2,3-b]pyridin-5-yl)-H-pyrazol-1-yl)-4-oxo-6,9,12,15-tetraoxa-3-azahenicosan-1-oyl)-4-hydroxy-N—((S)-1-(4-(4-methylthiazol-5-yl)phenyl)ethyl)pyrrolidine-2-carboxamide]
+++ (50% > RAF/E3 Dimerization ≥ 25) | Cc1ncsc1-c1ccc([C@H](C)NC(=O)[C@@H]2C[C@@H](O)CN2C(=O)[C@H](NC(=O)COCCOCCNC(=O)CCNc2nccc(-c3cn(CC(F)F)nc3-c3cnc4[nH]ccc4c3)n2)C(C)(C)C)cc1 [Compound 2.046, (2S,4R)-1-((R)-2-(tert-butyl)-15-((4-(1-(2,2-difluoroethyl)-3-(1H-pyrrolo[2,3-b]pyridin-5-yl)-1H-pyrazol-4-yl)pyrimidin-2-yl)amino)-4,13-dioxo-6,9-dioxa-3,12-diazapentadecan-1-oyl)-4-hydroxy-N—((S)-1-(4-(4-methylthiazol-5-yl)phenyl)ethyl)pyrrolidine-2-carboxamide]
++ (25% > RAF/E3 Dimerization ≥ 5%) | Cc1ncc(NC(=O)c2cccc(C(F)(F)F)c2)cc1-c1cnc(OC2CCOCC2)c(N2CCN(CCCCc3cn(CCCCCC(=O)Nc4cccc5c4C(=O)N(C4CCC(=O)NC4=O)C5=O)nn3)CC2)c1 (stereo not drawn) [Compound 2.048, N-(5′-(4-(4-(1-(6-((2-(2,6-dioxopiperidin-3-yl)-1,3-dioxoisoindolin-4-yl)amino)-6-oxohexyl)-1H-1,2,3-triazol-4-yl)butyl)piperazin-1-yl)-2-methyl-6′-((tetrahydro-2H-pyran-4-yl)oxy)-[3,3′-bipyridin]-5-yl)-3-(trifluoromethyl)benzamide]
+ (5% > RAF/E3 Dimerization) | Cc1ncc(NC(=O)c2cccc(C(F)(F)F)c2)cc1-c1cnc(OC2CCOCC2)c(N2CCN(C(=O)CCCc3cn(CCCCCC(=O)Nc4cccc5c4C(=O)N(C4CCC(=O)NC4=O)C5=O)nn3)CC2)c1 (stereo not drawn) [Compound 2.049, N-(5′-(4-(4-(1-(6-((2-(2,6-dioxopiperidin-3-yl)-1,3-dioxoisoindolin-4-yl)amino)-6-oxohexyl)-1H-1,2,3-triazol-4-yl)butanoyl)piperazin-1-yl)-2-methyl-6′-((tetrahydro-2H-pyran-4-yl)oxy)-[3,3′-bipyridin]-5-yl)-3-(trifluoromethyl)benzamide]
